# Reference: patent US5593835A, “Methods and kits for RNA binding compounds” (President and Fellows of Harvard College, priority 1995, dated 1997)
# Where two headings read alike, the source gives them in different places.
# Key:
# [1] = biological target: J6a1 RNA (SEQ ID NO: 5), synthetically derived from the predicted structures; assay: Fluorescence binding measurements, J6a1 RNA
# Description: (§1) The binding of tobramycin to two cloned RNAs X1 (SEQ ID NO:2) and J6 (SEQ ID NO:5), representative of both classes of consensus sequences, was measured using the fluorescence techniques described in the exemplification.
# *synthetically derived from the predicted structures
# (§2) Steady state fluorescence measurements were performed on a double beam fluorescence spectrometer (Perkin-Elmer Model 512, Norwalk, Conn.). The excitation wavelength was 341 nm. All measurements were done at 20° C. in 140 mM NaCl, 5 mM KCl, 1 mM CaCl2, 1 mM MgCl2, and 20 mM HEPES, pH 7.4. The KD of the PYT and the RNA aptamer was calculated by the curve fitting of the fluorescence intensity as a function of RNA concentration, using the following equation
# (§3) Competition binding measurements of antibiotics with RNA and PYT were performed at constant concentrations of PYT and RNA by monitoring fluorescence intensity changes as a function of changing concentrations of the antibiotics (a standard fluorescence curve). The KD s for the antibiotics were calculated by the curve fitting of the fluorescence intensity of PYT as a function of antibiotic concentration, using the following equation: […]
# TAR region of HIV RNA = assay: Fluorescence binding and competitive binding to TAR RNA; settings: competition, 100 nM RNA, 15 nM fluorescent tobramycin, 20° C., pH 7.4; read-out: Dissociation Constant (KD) TAR RNA
# Description: In order to quantitatively determine whether fluorescently labelled tobramycin and other antibiotics bind directly to the RRE region and/or to other regions of the HIV RNA, and with what affinity, the RRE and TAR regions of HIV RNA were prepared and used in the method of the invention as target RNAs.
# In other competitive binding studies, TAR or RRE RNA was added at a constant concentration of 100 nM±5% and PYT at 15 nM. Different concentrations of competitive antibiotic (tobramycin (o-60 μM), gentamicin C (0-100 μM), neomycin B (0-4 μM), or lividomycin A (0-100 μM) or Rev protein (0-6 μM) were mixed with constant concentrations of RNA (100 nM TAR or RRE) and C1PYT (15 nM), in Binding buffer (140 mM NaCl, 5 mM KCl, 1 mM MgCl2, 20 mM HEPES, pH 7.4), 2 ml total volume, for 1-5 min. at 20° C. in a semimicrocell cuvette. The fluorescence was measured on a Perkin-Elmer Model 512 double beam fluorescence spectrophotometer. The excitation wavelength used was 330 nm. The intensities of fluorescence emission at 390 nm were used to calculate dissociation constants. Generally 8 to 12 points were used for calculation.
# Competition binding measurements of antibiotics with RNA and PYT were performed at constant concentrations of PYT and RNA by monitoring fluorescence intensity changes as a function of changing concentrations of the antibiotics (a standard fluorescence curve). […]
# J6 RNA (SEQ ID NO:5) = assay: Fluorescence binding measurements, J6 RNA
# Description: as §1, §2, §3
# [2] = tested on: RNA pool transcribed from DNA after the sixth selection, bound to tobramycin affinity column; assay: Elution of bound RNA from tobramycin affinity column; assay type: binding; settings: 3 column volumes of 10 mM tobramycin
# From the text: Elution patterns of the RNA from the columns are shown in FIG. 4 for the second and sixth selections. Over 6 cycles of selection, the percentages of RNA specifically eluted with tobramycin were <0.1%, 3.0%, 2.9%, 26%, 55%, and 82%. […] The RNA pool transcribed from DNA after the sixth selection could not be eluted from the affinity column, even after 100 column volumes of selection buffer.
# An N-hydroxysuccinimide Affi-Gel affinity column (Bio-Rad, Hercules, Calif.) was derivatized with either 20 μmoles or 0.075 μmoles tobramycin per ml of gel to generate the affinity columns. Excess N-hydroxysuccinimide linkages were blocked by adding 1M ethanolamine. The resulting column served as the support for the RNA selections. The tobramycin concentration on column was estimated as about 15 mM. Selections were performed in 1 ml column volumes in a buffer (selection buffer) containing 140 mM NaCl, 5 mM KCl, 1 mM CaCl2, 1 mM MgCl2, and 20 mM Tris acetate, pH 7.4 (Bock et al. (1992) Nature 355: 564-566). A 1 ml Affi-Gel 10 pre-column treated with ethanolamine was used in all selections.
# The original double stranded DNA pool was constructed by large scale PCR amplification of the synthesized 109mer random DNA pool (Oligos, Etc., Inc., Wilsonville, Oreg.) containing 60 random nucleotides. […]
# [3] = K1 - high affinity, read-out: Dissociation Constants K1(TOB)
# [4] = K2 - low affinity, read-out: Dissociation Constants K2(TOB)
compound,measurement,setting,value
NC[C@H]1O[C@H](O[C@H]2[C@H](O)[C@@H](O[C@H]3O[C@H](CO)[C@@H](O)[C@H](N)[C@H]3O)[C@H](N)C[C@@H]2N)[C@H](N)C[C@@H]1O [tobramycin],Kd,[1]; [3],0.009 ± 0.003 µM
same,Kd,[1]; [4],2.7 ± 0.3 µM
same,Kd,TAR region of HIV RNA,19.1 ± 1.1 µM
same,Kd,J6 RNA (SEQ ID NO:5); [3],0.002 ± 0.001 µM
same,Kd,J6 RNA (SEQ ID NO:5); [4],6 ± 0.4 µM
same,RNA eluted from tobramycin affinity column,[2],96%
